Assays:
[1] = system: NEM157i and SU-DIPG-IVi DMG cells; experiment: Apoptosis assay (Annexin V-PE / 7-AAD flow cytometry) in DMG cells; type: cell-based, human; conditions: 5 days of treatment
From the text: After exposure to drugs at indicated concentrations and times, cells were labeled with Annexin V-PE (BD Biosciences, Le Pont de Claix, France) and 7-AminoActinomycin D (7-AAD) (BD Bioscience) and analyzed using Flow Cytometry as described.

H3K27me3 trimethylation = experiment: Western blot of H3K27me3 in DMG cells; type: cell-based, human
Method: Histone extraction was performed according to manufacturer's instructions (Histone Extraction Kit-ab113476, Abcam, Paris, France).
(§1) Cell lysates were prepared by scraping cells using RIPA buffer (Sigma Aldrich) plus proteinase inhibitors (Sigma Aldrich) and centrifuged at 13000 g for 15 min at 4° C. Protein concentrations were measured using Pierce™ BCATM Protein Assays (ThermoFisher) and equal amounts of cell extracts were loaded for western blot analysis in 4-15% precasted polyacrylamide gel (Bio-Rad). Proteins were blotted on a nitrocellulose membrane (Transblot® Turbo midi-size, Bio Rad), blocked with the Odyssey blocking buffer (LI-COR Biosciences, ScienceTec, Les Ulis, France) or with BSA diluted in Tris-buffered saline with 0.1% Tween 20 (TBST) and probed with primary antibodies overnight at 4° C. […] Quantification was performed using ImageJ (National Institutes of Health, Bethesda, Maryland, USA).

[2] = system: HMGCS, HMGCR, LDLR, NPC1 and SQLE; experiment: RT-qPCR and Western blot of lipid and cholesterol synthesis genes in DIPG cells; type: cell-based, human; conditions: GSK-126 at IC50 of each cell line
Method: as §1
Total RNA was isolated from cell lines with the TRI Reagent (Sigma) following manufacturer's instructions. For quantification of messenger RNA (mRNA) expression, total RNA was retrotranscribed using the Maxima Reverse Transcriptase (Thermo Scientific). […]

[3] = system: DMG cell lines including primary BXdmg1 cells; experiment: DMG spheroid formation assay; type: cell-based, human; conditions: 24 hours; GSK-126 20 μM for NEM157i and 15 μM for the others
Method: For spheroid formation assays, 10^4 cells were used per well in a 96-well plate. Volume of methylcellulose/medium/cells and inhibitors (10, 15 or 20 μM) mixture per well was 100 μL with a final concentration of methylcellulose at 0.5%. After rapid and gentle homogenization, the mixture was placed on a round-bottom cell culture microplate (U-shaped) treated to limit cell adhesion. After, spheroids were incubated in an incubator at 37° C. and 5% CO2 for 24 hours. Photos and films of spheroids were taken by an InCellis cell imager (Bertin instruments, Montigny-le-bretonneux, France).

[4] = system: SU-DIPG-IVi-Luc cells implanted in the brainstem; experiment: Orthotopic SU-DIPG-IVi-Luc brainstem glioma model in NSG mice; type: in vivo, NOD/LtSz-scid IL2R gamma (NSG) mice
Method: For the mouse model, the immortalized SU-DIPG-IV line was used. SU-DIPG-IVi was transduced by a luciferase vector (Luc) with a MOI of 10. Two days after birth, 10^5 SU-DIPG-IVi-Luc cells in 2 μl were injected directly into the brainstem through the neck to a depth of 3 mm using a 2 μl NeuroSyringe (Hamilton Neuros, Dutscher, Bruxelles, Belgium) under anesthesia with 2% isoflurane and 50% oxygen enrichment. […] Tumor growth was evaluated non-invasively with anesthetized mice on a Biospace imager (Biospace Lab, Nesles la Vallée, France) 1-2 days after each treatment.
Prior to treatments, mice were micro-tattooed (Aramis kit, BiosebLab, France). Animals were weighed and then receive an i.p. injection in the lower right quadrant following IACUC recommendations. A 1 ml tuberculin syringe and a 26-gauge needle were used with an injection volume of 200 μl for a 30 g mouse (3 mg/ml), adjusted to actual weight each week. Treatment was done 3 times a week, starting at day 8. Tumor growth was evaluated non-invasively on a Biospace imager (Biospace Lab, Nesles la Vallée, France). The entire procedure was carried out on a heating mat at 37° C. The animals were shaved and anesthetized in sterile condition (under PSM-2) in boxes dedicated to imaging. […]

Huh6 cells = experiment: Cell viability assay (CellTiter 96 AQueous One / MTS) in Huh6; type: cell-based, human
Method: (§2) For 2D culture, a total of 2,000 cells/well for Huh6 and 3,000 cells/well for HepG2 were seeded in 96-well microtiter plates. Cell growth was measured at 24 h, 48h, 72h or 96h after genetic manipulation and at 48h or 72h after drug treatment using the in vitro MTS assay Kit or Sulforhodamine B (SRB, Absorbance at 565 nm) assay (Sigma) following manufacturer's instructions. For 3D culture, spheroids were formed as described above and microplates were incubated in an IncuCyte® S3 live cell analysis system and scanned every 8 hours. For genetic manipulation, the lentiviral transductions or the gene depletions were done before the plating. For drug treatments, depending on the experiment and the drug, spheroids were treated at day 4 or 5 for 48h or 72h. Cell viability assay in spheroids was done using 1 μM calcein AM (BioLegend) and 2 μM ethidium homodimer 1 (Sigma) for 30 minutes at 37° C. Spheroids were imaged using an IncuCyte® S3 live cell analysis system. For all cell viability assays, drugs were used at half maximal inhibitory concentration (IC50).

HepG2 cells = experiment: Cell viability assay (CellTiter 96 AQueous One / MTS) in HepG2; type: cell-based, human
Method: as §2

H3K27me3, HMGCR = experiment: Western blots of H3K27me3 and HMGCR in hepatoblastoma cells; type: cell-based, human; conditions: Huh6 and HepG2
Method: Cells were lysed and total proteins were extracted 48 hours after treatment or 72 hours after genetic manipulation using a mixture of RIPA buffer (Sigma), protease inhibitors and phosphatase inhibitor cocktail (Roche). After protein quantification with BCA Protein Assays (ThermoFisher), 40 μg of total proteins were loaded in 4-15% pre-casted gels (Bio-Rad) for migration. Then, proteins were transferred onto a nitrocellulose membrane (Transblot® Turbo midi-size, Bio Rad). The membranes were blocked with 5% BSA or Odyssey blocking buffer (LI-COR Biosciences) and detected with the corresponding antibodies (Table 2). The revelation was performed by chemiluminescence using Fusion FX (Vilber Lourmat) and quantification was done using ImageJ software (National Institutes of Health, Bethesda, Maryland, USA).

Huh6 and HepG2 cells = experiment: Lipid droplets assay in hepatoblastoma cells; type: cell-based, human
Method: The cells were plated in 6-well plate at a density of 250,000 cells per well. […] After 48 hours of treatment, the cells were fixed in 4% PFA for 15 minutes then stained with the red oil for 15 minutes at room temperature. Finally, cells were washed several times and scanned using InCellis microscope (Bertin Technologies, France).

## CC[C@H](C)n1cc(C)c2c(C(=O)NCc3c(C)cc(C)[nH]c3=O)cc(-c3ccc(N4CCNCC4)nc3)cc21 [GSK-126, 1-[(2S)-butan-2-yl]-N-[(4,6-dimethyl-2-oxo-1H-pyridin-3-yl)methyl]-3-methyl-6-[6-(1-piperazinyl)-3-pyridinyl]-4-indolecarboxamide]
[1]
  tumor cell apoptosis: increase in tumor cell apoptosis
H3K27me3 trimethylation; BXdmg1 cells, histone-purified protein extracts
  H3K27me3 trimethylation: reduced H3K27me3 trimethylation in a dose-dependent manner
H3K27me3 trimethylation; NEM157i and SU-DIPG-IVi DMG cells
  H3K27me3 trimethylation: efficiently inhibited
[2]
  expression of HMGCS, HMGCR, LDLR, NPC1 and SQLE genes, and HMGCR and SQLE proteins: induced
[3]
  spheroid formation: spheroid formation was affected
[4]; GSK-126 6 mg/kg, Atorvastatin 10 mg/kg, after four treatments
  tumor growth (bioluminescence): No significant differences
[4]; i.p. dose of 10 mg/kg, 3-times a week
  tumor growth (bioluminescence): significant growth reduction
Huh6 cells
  IC25 dose: 3 µM
Huh6 cells; Homo sapiens, HuH-6
  IC50: 6 µM
HepG2 cells
  IC25 dose: 4 µM
HepG2 cells; Homo sapiens
  IC50: 8 µM
H3K27me3, HMGCR; GSK-126 at IC50
  trimethylation of histone H3 Lysine 27: reduced
H3K27me3, HMGCR
  expression of HMGCR: triggered
Huh6 and HepG2 cells
  synthesis of lipids: triggered

Source: US20240408081A1, “NOVEL SYNERGISTIC COMBINATIONS AND METHODS OF USE THEREOF FOR TREATING CANCERS” (UNIVERSITE DE BORDEAUX, priority 2021, published 2024)
